Assay results published in PMC9847679, “The anti-breast cancer stem cell properties of gold(I)-non-steroidal anti-inflammatory drug complexes” (Chemical Science, 2022).
Read-outs that look alike come from different tables or passages of the source.

What was measured:
HMLER cells = assay: Monolayer cytotoxicity (MTT assay), HMLER cells; format: cell-based, human
Text: (§1) Cell Lines and Cell Culture Conditions. The human mammary epithelial HMLER and HMLER-shEcad cell lines were kindly donated by Prof. R. A. Weinberg (Whitehead Institute, MIT). The human epithelial breast MCF10A, breast adenocarcinoma MDA-MB-231 and MDA-MB-468, murine epithelial breast 4T1, and embryonic kidney HEK 293 cell lines were acquired from American Type Culture Collection (ATCC, Manassas, VA, USA).
(§2) HMLER, HMLER-shEcad, and MCF10A cells were maintained in Mammary Epithelial Cell Growth Medium (MEGM) with supplements and growth factors (BPE, hydrocortisone, hEGF, insulin, and gentamicin/amphotericin-B). MDA-MB-231, MDA-MB-468, 4T1, and HEK 293 cells were maintained in Dulbecco's Modified Eagle's Medium (DMEM) supplemented with fetal bovine serum (10 %) and penicillin/streptomycin (1 %). The cells were grown at 310 K in a humidified atmosphere containing 5% CO2.
(§3) Monolayer Cytotoxicity Studies. Exponentially growing cells were seeded at a density of approximately 5 × 10^3 cells per well in 96-well flat-bottomed microplates and allowed to attach for 24 h prior to addition of compounds. Various concentrations of the test compounds (0.0004-100 μM) were added and incubated for 72 h at 37 °C (total volume 200 μl). Stock solutions of the compounds were prepared as 10 mM DMSO solutions and diluted using cell […]
(§4) media. The final concentration of DMSO in each well was ≤1 %. After 72 h, 20 μl of MTT (4 mg mL-1 in PBS) was added to each well and the plates incubated for an additional 4 h at 37 °C. The media/MTT mixture was eliminated and DMSO (100 μl per well) was added to dissolve the formazan precipitates. The optical density was measured at 550 nm using a 96-well multiscanner autoreader. Absorbance values were normalised to (DMSO-containing) control wells and plotted as concentration of test compound versus % cell viability. IC50 values were interpolated from the resulting dose dependent curves. The reported IC50 values are the average of three independent experiments (n = 18). […]
(§5) After incubation for 16 […]
(§6) h, the fluorescence of the solutions was read at 590 nm (λex = 560 nm). Viable mammospheres reduce the amount of the oxidised TOX8 form (blue) and concurrently increase the amount of the fluorescent TOX8 intermediate (red), indicating the degree of mammosphere cytotoxicity caused by the test compound. […]
(§7) Cellular Uptake. To measure the cellular uptake of 1-3 about 1 million HMLER-shEcad cells were treated with 1-3 (0.25 μM) at 37 °C for 24 h. After incubation, the media was removed, the cells were washed with PBS (2 mL × 3) and harvested. The number of cells was counted at this stage, using a haemocytometer. This mitigates any cell death induced by 1-3 at the administered concentration and experimental cell loss. The cellular pellets were dissolved in 65% HNO3 (250 µL) overnight. A cellular pellet of HMLER-shEcad cells treated with 1 was also used to determine the gold content in the nuclear, cytoplasmic and membrane fractions. The Thermo Scientific NE-PER Nuclear and Cytoplasmic Extraction Kit was used to extract and separate the nuclear, cytoplasmic and membrane fractions. The fractions were dissolved in 65% HNO3 (250 µL final volume) overnight. All samples were diluted 17-fold with water and analysed using inductively coupled plasma mass spectrometry (ICP-MS, Thermo Scientific ICAP-Qc quadrupole ICP mass spectrometer). Gold levels are expressed as mass of Au (ng) per million cells. Results are presented as the mean of four determinations for each data point.
(§8) Intracellular ROS Assay. […]

HMLER-shEcad cells [1] = assay: Monolayer cytotoxicity (MTT assay), HMLER-shEcad cells; format: cell-based, human
Text: as §1, §2, §3, §4, §5, §6, §7, §8

[2] = test system: HMLER-shEcad mammospheres; assay: Mammosphere viability assay (TOX8); format: cell-based, human; conditions: 5 days incubation
Protocol: Tumorsphere Formation and Viability Assay.
in ultralow-attachment 96-well plates (Corning) and incubated in MEGM supplemented with B27 (Invitrogen), 20 ng mL-1 EGF and 4 μg mL-1 heparin (Sigma) for 5 days. […] The viability of the mammospheres was determined by addition of a resazurin-based reagent, TOX8 (Sigma). After incubation for 16 h, the fluorescence of the solutions was read at 590 nm (λex = 560 nm). Viable mammospheres reduce the amount of the oxidised TOX8 form (blue) and concurrently increase the amount of the fluorescent TOX8 intermediate (red), indicating the degree of mammosphere cytotoxicity caused by the test compound. Fluorescence values were normalised to DMSO-containing controls and plotted as concentration of test compound versus % mammospheres viability. IC50 values were interpolated from the resulting dose dependent curves. The reported IC50 values are the average of three independent experiments, each consisting of two replicates per concentration level (overall n = 6).

[3] = test system: HMLER-shEcad mammospheres; parameters: method as in PMID 26806362, PMID 31209956, PMID 28932846; conditions: read-out: Mammosphere IC50; cited from earlier work
HMLER-shEcad cells [4] = test system: HMLER-shEcad cells; parameters: method as in PMID 26806362, PMID 31209956, PMID 28932846; conditions: cited from earlier work
[5] = Water-octanol partition coefficient (shake-flask, UV-vis); format: physicochemical; conditions: room temperature 24 h
Protocol: Measurement of water-octanol partition coefficient (LogP). The LogP values for 1-8 were determined using the shake-flask method and UV-vis spectroscopy. The 1-octanol used in this experiment was pre-saturated with water. An aqueous solution of 1-8 (500 μL, 100 μM) was incubated with 1-octanol (500 μL) in a 1.5 mL tube. The tube was shaken at room temperature for 24 h. The two phases were separated by centrifugation and the 1-8 content in each phase was determined by UV-vis spectroscopy. […]

MDA-MB-231 cells = assay: Monolayer cytotoxicity (MTT assay), MDA-MB-231 cells; format: cell-based, human; conditions: 72 h incubation
Text: as §1, §2, §3
(§9) media. The final concentration of DMSO in each well was ≤1 %. […] The optical density was measured at 550 nm using a 96-well multiscanner autoreader. Absorbance values were normalised to (DMSO-containing) control wells and plotted as concentration of test compound versus % cell viability. […]
(§10) h, the fluorescence of the solutions was read at 590 nm (λex = 560 nm). […]
(§11) Cellular Uptake. […] The number of cells was counted at this stage, using a haemocytometer. […] All samples were diluted 17-fold with water and analysed using inductively coupled plasma mass spectrometry (ICP-MS, Thermo Scientific ICAP-Qc quadrupole ICP mass spectrometer). Gold levels are expressed as mass of Au (ng) per million cells. […]

MDA-MB-468 cells = assay: Monolayer cytotoxicity (MTT assay), MDA-MB-468 cells; format: cell-based, human; conditions: 72 h incubation
Text: as §1, §2, §3, §4
Cellular Uptake. […]

4T1 cells = assay: Monolayer cytotoxicity (MTT assay), 4T1 cells; format: cell-based, murine; conditions: 72 h incubation
Text: as §1, §2, §3, §9, §10, §11

[6] = Solution stability by UV-vis and NMR spectroscopy; format: physicochemical
Protocol: The stability of 1–8 in solutions relevant for cell-based studies was determined by UV-vis spectroscopy studies. […] The DMSO- and PBS-stable complexes 1–4 (50 μM) were also deemed stable in MEGM : DMSO (1 : 1) over the course of 24 h at 37 °C (Fig. S22 ^†). Time course ^31P{^1H} and ^1H NMR spectroscopy studies were carried out to confirm the solution stability of 1–4. […] The ^1H NMR spectra for 1–3 (10 mM) remained unchanged over the same period (Fig. S26–S28 ^†). […] In the ^31P{^1H} NMR spectrum, the signal for intact 4 (at 27.05 ppm) completely disappeared after 48 h and was replaced by a signal corresponding to triphenylphosphine oxide (at 25.47 ppm) (Fig. S29 ^†). The formation of triphenylphosphine oxide was also detected in the ^1H NMR spectrum (Fig. S30 ^†). Additionally, plating of elemental gold was observed over the course of 72 h.

COX-2 [7] = assay: COX-2 expression assay (flow cytometry); format: cell-based, human; conditions: LPS 2.5 μM 24 h pre-treatment; 1 at IC50 value or indomethacin 20 μM, 48 h
Protocol: COX-2 Expression Assay. HMLER-shEcad cells were seeded in 6-well plates (at a density […]
indomethacin (20 μM) and incubated for a further 48 h. The cells were then harvested by trypsinisation, fixed with 4% paraformaldehyde (at 37 °C for 10 min), permeabilised with ice-cold methanol (for 30 min), and suspended in PBS (200 μL). […]
labelled anti-COX-2 antibody (5 μL) was then added to the cell suspension and incubated in the dark for 1 h. The cells were then washed with PBS (1 mL) and analysed using a FACSCanto II flow cytometer (BD Biosciences) (10,000 events per sample were acquired) at the University of Leicester FACS Facility. The FL1 channel was used to assess COX-2 expression. Cell populations were analysed using the FlowJo software (Tree Star).
COX-2 Inhibition Enzyme Immunoassay (EIA). […]
(ovine) Inhibitor Screening Assay (Cayman Chemicals).” The assay was performed according to the manuf acturer’s instructions using a 96-well plate set up.

COX-2 [8] = target: T1, COX-2 (Ovis aries, UniProt P79208); assay: COX-2 inhibition enzyme immunoassay (EIA); format: biochemical, ovine; conditions: COX-2-catalysed conversion of arachidonic acid to prostaglandin, tested 1-250 μM
T1 construct: purchased Cayman Chemicals
T1 sequence (P79208 17-603): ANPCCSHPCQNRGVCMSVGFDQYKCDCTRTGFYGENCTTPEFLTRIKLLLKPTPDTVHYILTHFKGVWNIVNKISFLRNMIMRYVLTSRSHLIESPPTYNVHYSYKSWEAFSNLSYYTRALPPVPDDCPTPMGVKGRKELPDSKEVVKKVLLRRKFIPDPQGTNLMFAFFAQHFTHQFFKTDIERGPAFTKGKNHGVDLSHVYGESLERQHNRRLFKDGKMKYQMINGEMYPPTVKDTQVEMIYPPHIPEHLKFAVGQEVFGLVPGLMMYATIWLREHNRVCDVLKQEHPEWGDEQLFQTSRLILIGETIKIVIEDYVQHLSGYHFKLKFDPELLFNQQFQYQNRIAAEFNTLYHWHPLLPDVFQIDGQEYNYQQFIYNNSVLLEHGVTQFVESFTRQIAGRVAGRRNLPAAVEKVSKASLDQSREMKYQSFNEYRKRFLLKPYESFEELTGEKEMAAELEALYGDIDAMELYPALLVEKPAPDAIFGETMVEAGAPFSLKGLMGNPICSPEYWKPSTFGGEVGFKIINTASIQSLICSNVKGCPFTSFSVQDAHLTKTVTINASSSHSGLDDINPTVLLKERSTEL
Protocol: ice-cold methanol (for 30 min), and suspended in PBS (200 μL). […]
COX-2 Inhibition Enzyme Immunoassay (EIA). The COX-2 inhibitory properties of 1,
indomethacin, and ch loro(triphenylphosphine)gold(I) was determined using the “COX
(ovine) Inhibitor Screening Assay (Cayman Chemicals).” The assay was performed
according to the manuf acturer’s instructions using a 96-well plate set up.

[9] = Homo sapiens, 72 h incubation, MTT
[10] = Homo sapiens, within concentration range tested

## CCCCCOC(=O)Nc1nc(=O)n([C@@H]2O[C@H](C)[C@@H](O)[C@H]2O)cc1F [Capecitabine, capecitabine]
HMLER cells; [9]
  IC50: > 100 µM
HMLER-shEcad cells [1]; [9]
  IC50: > 100 µM
[2]; Homo sapiens, 120 h
  IC50: > 133 µM

## CC[C@@H](C(=O)[C@@H](C)[C@@H](O)[C@H](C)[C@@H]1O[C@@H]([C@@H](CC)C(=O)O)CC[C@@H]1C)[C@H]1O[C@]2(C=C[C@@H](O)[C@]3(CC[C@@](C)([C@H]4CC[C@](O)(CC)[C@H](C)O4)O3)O2)[C@H](C)C[C@@H]1C [Salinomycin, salinomycin]
[3]
  IC50: 19 ± 2 µM
HMLER-shEcad cells [4]
  IC50: 4.23 ± 0.35 µM

## Cc1c(Cl)cccc1Nc1ccccc1C(=O)[O][Au][PH](c1ccccc1)(c1ccccc1)c1ccccc1 [complex 6]
[5]
  LogP value: 1.17 ± 0.37

## O=C([O][Au][PH](c1ccccc1)(c1ccccc1)c1ccccc1)c1cc(-c2ccc(F)cc2F)ccc1O [complex 2]
MDA-MB-231 cells
  IC50: 5.79 ± 0.79 µM
HMLER cells; 72 h incubation, MTT
  IC50: 0.221 ± 0.003 µM
[5]
  LogP value: 1.54 ± 0.44
HMLER-shEcad cells [1]; 72 h incubation, MTT
  IC50: 0.138 ± 0.007 µM
MDA-MB-468 cells
  IC50: 7.12 ± 0.1 µM
[2]
  IC50: 8 ± 1 µM
4T1 cells
  IC50: 7.25 ± 0.4 µM

## O=c1[nH]cc(F)c(=O)[nH]1 [5-Fluorouracil, 5-fluorouracil, reference compound]
[2]; Homo sapiens, 120 h
  IC50: 15 ± 1 µM

## CC(C)Cc1ccc(C(C)C(=O)[O][Au][PH](c2ccccc2)(c2ccccc2)c2ccccc2)cc1 (stereo not drawn) [complex 8]
[5]
  LogP value: 1.19 ± 0.01

## CC(=O)OC[C@H]1O[C@@H]([S-])[C@H](OC(C)=O)[C@@H](OC(C)=O)[C@@H]1OC(C)=O.CCP(CC)CC.[Au+] [auranofin]
HMLER cells
  fold more potent towards HMLER cells than HMLER-shEcad cells: 2 fold
HMLER cells; 72 h incubation, MTT
  IC50: 0.013 ± 0.002 µM
HMLER-shEcad cells [1]; 72 h incubation, MTT
  IC50: 0.026 ± 0.005 µM

## N.N.O=C([O-])C1(C(=O)[O-])CCC1.[Pt+2] [Carboplatin, carboplatin]
[3]
  IC50: 18 ± 1 µM

## O=C(Cc1ccccc1Nc1c(Cl)cccc1Cl)[O][Au][PH](c1ccccc1)(c1ccccc1)c1ccccc1 [complex 4]
[6]; 10 mM, 72 h
  stability in DMSO-d6 (31P{1H} and 1H NMR): unstable in solution

## Cc1cccc(Nc2ccccc2C(=O)[O][Au][PH](c2ccccc2)(c2ccccc2)c2ccccc2)c1C [complex 7]
[5]
  LogP value: 0.83 ± 0.23

## O=C([O][Au][PH](c1ccccc1)(c1ccccc1)c1ccccc1)c1ccccc1O [complex 5]
[5]
  LogP value: 0.75 ± 0.01
[6]; 50 μM, 24 h, 37 °C
  stability in PBS : DMSO (1 : 1) (UV-vis): but not 5, was stable

## COc1ccc2cc([C@H](C)C(=O)[O][Au][PH](c3ccccc3)(c3ccccc3)c3ccccc3)ccc2c1 [complex 3]
MDA-MB-231 cells
  IC50: 7.77 ± 0.41 µM
HMLER cells; 72 h incubation, MTT
  IC50: 0.183 ± 0.001 µM
HMLER-shEcad cells [1]; 72 h incubation, MTT
  IC50: 0.063 ± 0.006 µM
MDA-MB-468 cells
  IC50: 6.48 ± 1.43 µM
[2]
  IC50: 8 ± 1 µM
4T1 cells
  IC50: 10.1 ± 0.86 µM

## COc1ccc2c(c1)c(CC(=O)O)c(C)n2C(=O)c1ccc(Cl)cc1 [indomethacin]
COX-2 [7]
  COX-2 expression: decreased
HMLER cells; [10]
  IC50: > 100 µM
HMLER-shEcad cells [1]; [10]
  IC50: > 100 µM

## [Cl][Au].c1ccc(P(c2ccccc2)c2ccccc2)cc1 [chloro(triphenylphosphine)gold(I)]
HMLER cells; 72 h incubation, MTT
  IC50: 0.207 ± 0.005 µM
HMLER-shEcad cells [1]; 72 h incubation, MTT
  IC50: 0.216 ± 0.003 µM
HMLER-shEcad cells [1]; compared with 1
  fold less toxic towards HMLER and HMLER-shEcad cells than 1: up to 3.8 fold
COX-2 [8]
  IC50: > 250 µM
